Assay results published in patent US8623839B2, “Compositions and methods for stabilized polysaccharide formulations” (DePuy Mitek, LLC, priority 2011, dated 2014).

What was measured:
[1] = test system: rat medial meniscal tear (MMT) model of osteoarthritis; assay: Rat MMT model of osteoarthritis, histology; format: in vivo
Description: In the rat medial mensical tear (MMT) model of osteoarthritis, transection of the medial meniscus results in joint deterioration and reduced weight bearing that mimics human osteoarthritis. A unilateral medial meniscal tear in 300-400 gram rats results in rapidly progressive cartilage degenerative changes characterized by chondrocyte and proteoglycan loss, fibrillation, osteophyte formation and chondrocyte cloning. Such changes are typically observed to be substantial by day 21 following the meniscal surgery. The extent of joint deterioration, as determined primarily by the extent of cartilage lesions formed, can be measured using a semi-quantitative histological scoring system.
To test the utility of trehalose as a vehicle for intra-articularly injected compounds, a solution of trehalose was formulated as a 5% solution in 3 mM glycine-HCl buffer, having a pH of approximately 3. The solution was tested in the rat MMT model. Transection of the medial collateral ligament just below attachment to the meniscus was performed on 15 male Lewis rats. The meniscus was cut at its narrowest point (away from the ossicles) taking care not to damage the tibial surface.
Beginning three days after MMT surgery, intra-articular injections of the trehalose solution were given weekly for five weeks, followed by euthanasia at week six.
Such measurements are taken using an ocular micrometer from stained histological cross sections of the medial compartment of the joint.
These measurements are taken using an ocular micrometer from stained histological cross sections of the medial compartment of the joint.
Cartilage preservation also correlated to the extent of collagen degeneration. […] The extent of collagen degeneration is defined as follows: […]
Severe damage (total or near total loss of collagen to tidemark, >90% thickness)
Marked damage (extends through 61-90% of the cartilage thickness)
Moderate damage (extends thru 31-60% of the cartilage thickness)
Mild damage (extends through 11-30% of the cartilage thickness)
Minimal damage (very superficial, affecting upper 10% only)
Cartilage degeneration scores were determined histologically by estimating the area of non-viable (significant chondrocyte and proteoglycan loss but collagen retention) and completely absent cartilage matrix, then estimating the percentage of that area compared to the area of the extrapolated original cartilage cross sectional area. A score of 1-5 is assigned, with a score of 1 indicating cartilage degeneration of 10% or less, and a score of 5 indicating complete cartilage degeneration. In FIG. 8, Zone 1 refers to the one third of the medial tibial plateau closest to the transected meniscus. […]

[2] = test system: rabbit anterior cruciate ligament transection (ACLT) model of OA; assay: Rabbit ACLT model of osteoarthritis, modified Mankin scale; format: in vivo; details: 5% solution in 3 mM glycine-HCl buffer pH approx. 3, intra-articular weekly for seven weeks, euthanasia at 8 weeks; vs untreated animals (FIG. 9)
Protocol: The trehalose formulation (a 5% trehalose solution in 3 mM glycine-HCl buffer having a pH of approximately 3) described above was also tested in the rabbit anterior cruciate ligament transection (ACLT) model of OA. The ACLT surgery destabilized the rabbit knee to a greater extent than meniscal transection, resulting in not only substantial cartilage deterioration but also osteophyte formation. Studies investigating the development and regulation of osteophyte formation in the rabbit model of OA have detected plate-like formations as early as 4 weeks post-ACLT, and osteophyte growth in all compartments of the knee by 12 weeks post-ACLT.
Rabbits were anesthetized. The patellar fat pad was retracted, and the ACL was isolated. The anterior cruciate ligament was severed with a surgical blade. The fibrous capsule and subcutaneous tissue were closed prior to the skin being sutured. Beginning one week after surgery, intra-articular injections were given weekly for seven weeks, followed by euthanasia at 8 weeks. Cartilage degradation was determined histologically using a modified Mankin scale. Higher scores indicated more extensive cartilage degradation, with a maximum score of 18.
[…] decreased cartilage degeneration as a result of the intra-articular trehalose injections.

## OC[C@H]1O[C@H](O[C@H]2O[C@H](CO)[C@@H](O)[C@H](O)[C@H]2O)[C@H](O)[C@@H](O)[C@@H]1O [trehalose, α-D-glucopyranosyl α-D-glucopyranoside]
[1]; 5% solution in 3 mM glycine-HCl buffer pH approx. 3, intra-articular weekly for five weeks, euthanasia at week six, vs no treatment (FIG. 5)
  width of significant cartilage lesions (chondrocyte and proteoglycan loss through 50% or more of cartilage thickness): significant reduction
[1]; 5% solution, intra-articular weekly for five weeks, vs no treatment (FIG. 6)
  lesion Depth Ratio: significant improvement
[1]; 5% solution, intra-articular weekly for five weeks, vs no treatment (FIG. 7)
  width of cartilage lesions with marked or severe collagen depletion: significantly reduced
[1]; all three zones, 5% solution, intra-articular weekly for five weeks (FIG. 8)
  cartilage degeneration score of medial tibial plateau: statistically improved
[2]
  modified Mankin score: significant improvement
